Measurements from patent US11512053B2, “Arginine methyltransferase inhibitors and uses thereof” (priority 2013, dated 2022).
Like-named read-outs stand apart in the source and are kept apart here.

Columns and labels:
[1] = target: full-length human PRMT8 isoform 1 (Homo sapiens, UniProt Q9NR22); test: PRMT8 Biochemical Assay (3H-SAM Flashplate, peptide substrate); details: read-out: Biochemical IC50 PRMT8
Source text: General Materials. S-adenosylmethionine (SAM), S-adenosylhomocysteine (SAH), bicine, Tween20, dimethylsulfoxide (DMSO), bovine skin gelatin (BSG), isopropyl-β-D-thiogalactopyranoside (IPTG), and Tris(2-carboxyethyl)phosphine hydrochloride solution (TCEP) were purchased from Sigma-Aldrich at the highest level of purity possible. ^3H-SAM was purchase from American Radiolabeled Chemicals with a specific activity of 80 Ci/mmol. 384-well streptavidin Flashplates were purchased from PerkinElmer.
Substrates. Peptide representative of human histone H4 residues 31-45 was synthesized with an N-terminal linker-affinity tag motif and a C-terminal amide cap by 21st Century Biochemicals. The peptide was purified by high-performance liquid chromatography (HPLC) to greater than 95% purity and confirmed by liquid chromatography mass spectrometry (LC-MS). The sequence was Biot-Ahx-[…]-amide (SEQ ID NO.:8).
The resulting construct encodes an N-terminal GST tag and a thrombin cleavage sequence ([…] […] […] […] SPEF) (SEQ ID NO.:9) fused directly to Met 1 of PRMT8.
Protein Expression. E. coli (BL21(DE3) Gold, Stratagene) made competent by the CaCl2) method were transformed with the PRMT8 construct and ampicillin selection. Protein over-expression was accomplished by growing the PRMT8 expressing E. coli clone and inducing expression with 0.3 mM IPTG at 16° C. The culture was grown for 12 hours, harvested by centrifugation, and stored at −80° C. for purification.
Protein Purification. […] GST-tagged PRMT8 was eluted with 50 mM Tris, 2 mM glutathione, pH 7.8. Pooled fractions were cleaved by thrombin (10U) and dialysed in buffer A. GST was removed by reloading the cleaved protein sample onto glutathione sepharose column and PRMT8 was collected in the flow-through fractions. PRMT8 was purified further by ceramic hydroxyapatite chromatography. The column was washed with 50 mM phosphate buffer, 100 mM NaCl, 5% glycerol, 5 mM β-mercaptoethanol, pH 7.8 and PRMT8 was eluted by 100 mM phosphate in the same buffer. Protein was concentrated and buffer was exchanged to 50 mM Tris, 300 mM NaCl, 10% glycerol, 5 mM β-mercaptoethanol, pH 7.8 by ultrafiltration. The purity of recovered protein was 89%.
General Procedure for PRMT8 Enzyme Assays on Peptide Substrates. The assays were all performed in a buffer consisting of 20 mM Bicine (pH=7.6), 1 mM TCEP, 0.005% BSG, and 0.002% Tween 20, prepared on the day of use. Compounds in 100% DMSO (1 ul) were spotted into a polypropylene 384-well V-bottom plates (Greiner) using a Platemate Plus outfitted with a 384-channel head (Thermo Scientific). DMSO (1 ul) was added to Columns 11, 12, 23, 24, rows A-H for the maximum signal control and 1 ul of SAH, a known product and inhibitor of PRMT8, was added to columns 11, 12, 23, 24, rows I-P for the minimum signal control. A cocktail (40 ul) containing the PRMT8 enzyme was added by Multidrop Combi (Thermo-Fisher). The compounds were allowed to incubate with PRMT8 for 30 min at room temperature, then a cocktail (10 ul) containing ^3H-SAM and peptide was added to initiate the reaction (final volume=51 ul). The final concentrations of the components were as follows: PRMT8 was 1.5 nM, ^3H-SAM was 50 nM, non-radiolabeled SAM was 550 nM, peptide was 150 nM, SAH in the minimum signal control wells was 1 mM, and the DMSO concentration was 2%. The assays were stopped by the addition of non-radiolabeled SAM (10 ul) to a final concentration of 400 uM, which dilutes the ^3H-SAM to a level where its incorporation into the peptide substrate is no longer detectable. 50 ul of the reaction in the 384-well polypropylene plate was then transferred to a 384-well Flashplate and the biotinylated peptides were allowed to bind to the streptavidin surface for at least 1 hour before being washed once with 0.1% Tween20 in a Biotek ELx405 plate washer. […]

[2] = test system: mono-methyl arginine in RKO cells; test: RKO Methylation Assay, In Cell Western (ICW) for detection of mono-methyl arginine and DNA content; type: cell-based; details: Homo sapiens, RKO, 72 h, RKO cells, read-out: In Cell Western EC30
Source text: RKO adherent cells were purchased from ATCC (American Type Culture Collection), Manassas, Va., USA. DMEM/Glutamax medium, penicillin-streptomycin, heat inactivated fetal bovine serum, 0.05% trypsin and D-PBS were purchased from Life Technologies, Grand Island, N.Y., USA. Odyssey blocking buffer, 800 CW goat anti-rabbit IgG (H+L) antibody, and Licor Odyssey infrared scanner were purchased from Licor Biosciences, Lincoln, Nebr., USA. Mono-methyl arginine antibody was purchased from Cell Signaling Technology, Danvers, Mass., USA. Methanol was purchased from VWR, Franklin, Mass., USA. 10% Tween 20 was purchased from KPL, Inc., Gaithersburg, Md., USA. DRAQ5 was purchased from Biostatus Limited, Leicestershire, UK.
RKO adherent cells were maintained in growth medium (DMEM/Glutamax medium supplemented with 10% v/v heat inactivated fetal bovine serum and 100 units/mL penicillin-streptomycin) and cultured at 37° C. under 5% CO2.
Cell treatment, In Cell Western (ICW) for detection of mono-methyl arginine and DNA content. […] Compound (100 nL) from a 96-well source plate was added directly to 384 well cell plate. Plates were incubated at 37° C., 5% CO2 for 72 hours. After three days of incubation, plates were brought to room temperature outside of the incubator for ten minutes and blotted on paper towels to remove cell media. 50 μL of ice cold 100% methanol was added directly to each well and incubated for 30 min at room temperature. After 30 min, plates were transferred to a Biotek EL406 plate washer and washed 2 times with 100 μL per well of wash buffer (1×PBS). Next 60 μL per well of Odyssey blocking buffer (Odyssey Buffer with 0.1% Tween 20 (v/v)) were added to each plate and incubated 1 hour at room temperature. Blocking buffer was removed and 20 μL per well of primary antibody was added (mono-methyl arginine diluted 1:200 in Odyssey buffer with 0.1% Tween 20 (v/v)) and plates were incubated overnight (16 hours) at 4° C. Plates were washed 5 times with 100 μL per well of wash buffer. […] The plates were washed 5 times with 100 μL per well wash buffer then 2 times with 100 μL per well of water. Plates were allowed to dry at room temperature then imaged on the Licor Odyssey machine which measures integrated intensity at 700 nm and 800 nm wavelengths. Both 700 and 800 channels were scanned.
Calculations: First, the ratio for each well was determined by:
Each plate included fourteen control wells of DMSO only treatment (minimum activation) as well as fourteen control wells for maximum activation treated with 20 μM of a reference compound. The average of the ratio values for each control type was calculated and used to determine the percent activation for each test well in the plate. Reference compound was serially diluted three-fold in DMSO for a total of nine test concentrations, beginning at 20 μM. Percent activation was determined and EC30 curves were generated using triplicate wells per concentration of compound.

[3] = single experiment or average of multiple experiments
[4] = 72 hours compound incubation, mono-methyl arginine signal normalised to DNA content (DRAQ5), percent activation vs 20 μM reference compound
[5] = 72 hours incubation, mono-methyl arginine signal normalised to DNA content, single experiment or average of multiple experiments

Sequence of full-length human PRMT8 isoform 1 (Q9NR22 whole entry, canonical isoform): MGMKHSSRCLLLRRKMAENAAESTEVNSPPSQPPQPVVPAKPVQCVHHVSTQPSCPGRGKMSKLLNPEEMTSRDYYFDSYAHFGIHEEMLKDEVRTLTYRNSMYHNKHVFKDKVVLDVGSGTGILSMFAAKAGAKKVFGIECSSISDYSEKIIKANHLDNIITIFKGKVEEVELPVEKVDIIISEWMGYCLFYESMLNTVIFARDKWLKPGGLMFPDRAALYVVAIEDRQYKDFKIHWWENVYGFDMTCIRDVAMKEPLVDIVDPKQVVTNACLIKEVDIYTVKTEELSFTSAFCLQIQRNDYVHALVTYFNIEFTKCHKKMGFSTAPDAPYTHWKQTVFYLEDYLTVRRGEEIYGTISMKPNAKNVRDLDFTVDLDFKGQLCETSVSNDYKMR

Row | IC50 [1] | IC50 [1, 3] | Structure (SMILES) | EC30 [2, 4] | EC30 [2, 5]
1 | < 100 nM | 39.4 nM | CNCCN(C)Cc1c[nH]nc1[C@H]1CC[C@@H](O)C2(CCCCC2)C1 (single isomer, unassigned) [Compound 183] | < 3000 nM | 319 nM
2 | < 100 nM | 15.8 nM | CNCCN(C)Cc1c[nH]nc1C1CCC2(CC1)CCN(CCC(C)C)C2=O (stereo not drawn) [Compound 163] | < 3000 nM | 66 nM
3 | < 100 nM | 19.1 nM | CNCCN(C)Cc1c[nH]nc1C1CCC2(CC1)CCN(CC(C)C)C2=O (stereo not drawn) [Compound 164] | < 3000 nM | 78 nM
4 | – | – | CNCCN(C)Cc1c[nH]nc1C1CCC2(CC1)CCN(C)C2=O (stereo not drawn) [Compound 152] | < 3000 nM | 119 nM
5 | < 100 nM | 47.8 nM | CNCCN(C)Cc1c[nH]nc1[C@H]1CC[C@@]2(CCN(Cc3ccccc3)C2=O)CC1 [Compound 127] | < 3000 nM | 29.2 nM
6 | – | – | CNCCN(C)Cc1c[nH]nc1[C@H]1CC[C@@]2(CC1)CC(=O)N(CC(C)C)C2 [Compound 156] | < 3000 nM | 1360 nM
7 | 3010 to 10000 nM | 8370 nM | CNCCN(C)Cc1c[nH]nc1C1CC(OCC(C)C)CC(OCC(C)C)C1 (stereo not drawn) [Compound 122] | – | 346 nM
8 | – | – | CNCCN(C)Cc1c[nH]nc1C1CCC2(CC1)CN(C)C(=O)N2CC(C)C (stereo not drawn) [Compound 151] | < 3000 nM | 705 nM
9 | – | – | CNCCN(C)Cc1c[nH]nc1C1CCC(C)CC1 (stereo not drawn) [Compound 149] | < 3000 nM | 106 nM
10 | – | – | CCOC1CC(OCC)CC2(CCC(c3n[nH]cc3CN(C)CCNC)CC2)C1 (stereo not drawn) [Compound 159] | < 3000 nM | 63 nM
11 | – | – | CNCCN(C)Cc1c[nH]nc1C1CCC2(CC1)CC(=O)N(C)C2 (stereo not drawn) [Compound 157] | < 3000 nM | 2490 nM
12 | 1010 to 3000 nM | 1430 nM | CNCCN(C)Cc1c[nH]nc1C1CC(COC)CC(COC)C1 (stereo not drawn) [Compound 138] | – | –
13 | – | – | CNCCN(C)Cc1c[nH]nc1C1CCC2(CC1)CNC(=O)C2 (stereo not drawn) [Compound 147] | 3010 to 12000 nM | 8600 nM
14 | – | – | CNCCN(C)Cc1c[nH]nc1C1CCC2(CC1)CN(C)C(=O)N2C (stereo not drawn) [Compound 172] | 3010 to 12000 nM | 4460 nM
15 | – | – | CNCCN(C)Cc1c[nH]nc1[C@H]1CC[C@H](C(C)C)CC1 [Compound 180] | < 3000 nM | 19 nM
16 | < 100 nM | 32.6 nM | CNCCN(C)Cc1c[nH]nc1C1CCC2(CC1)OC(C)CC(C)O2 (stereo not drawn) [Compound 121] | – | –
17 | – | – | CNCCN(C)Cc1c[nH]nc1[C@H]1CC[C@@H](C(C)C)CC1 [Compound 181] | < 3000 nM | 107 nM
18 | 101 to 1000 nM | 340 nM | CNCCN(C)Cc1c[nH]nc1C1CCC(N(CC(C)C)C(=O)CC2CCOCC2)CC1 (stereo not drawn) [Compound 114] | – | –

Row | IC50 [1] | IC50 [1, 3] | Structure (SMILES) | EC30 [2, 4] | EC30 [2, 5]
19 | – | – | CNCCN(C)Cc1c[nH]nc1C1CCC2(CC1)CN(CC(C)C)C(=O)N2C (stereo not drawn) [Compound 145] | < 3000 nM | 2300 nM
20 | 101 to 1000 nM | 143 nM | CNCCN(C)Cc1c[nH]nc1C1CCC(=O)N(CCC(C)C)C1 (stereo not drawn) [Compound 117] | – | –
21 | – | – | CCN1CC2(CCC(c3n[nH]cc3CN(C)CCNC)CC2)N(C)C1=O (stereo not drawn) [Compound 154] | < 3000 nM | 1790 nM
22 | – | – | CNCCN(C)Cc1c[nH]nc1C1CCC(OCC(C)C)CC1 (stereo not drawn) [Compound 153] | < 3000 nM | 129 nM
23 | – | – | CNCCN(C)Cc1c[nH]nc1C1=CCC(CCOC)(CCOC)CC1 [Compound 173] | < 3000 nM | 408 nM
24 | – | – | CNCCN(C)Cc1c[nH]nc1C1CCC2(CC1)OCC(C(C)C)CO2 (stereo not drawn) [Compound 150] | < 3000 nM | 256 nM
25 | 1010 to 3000 nM | 1970 nM | CCCOC1CC(OCCC)CC(c2n[nH]cc2CN(C)CCNC)C1 (stereo not drawn) [Compound 131] | – | –
26 | – | – | CNCCN(C)Cc1c[nH]nc1C1CCC(CCOC)(CCOC)CC1 [Compound 174] | < 3000 nM | 85 nM
27 | – | – | CNCCN(C)Cc1c[nH]nc1C1CCC2(CC1)CC(=O)N(Cc1ccc(OC)cc1)C2 (stereo not drawn) [Compound 146] | < 3000 nM | 160 nM
28 | < 100 nM | 4.5 nM | CNCCN(C)Cc1c[nH]nc1C1CCC2(CC1)CCC(F)(F)CC2 [Compound 130] | – | –
29 | < 100 nM | 69.2 nM | CNCCN(C)Cc1c[nH]nc1C1CCCC(COCCOC)C1 (stereo not drawn) [Compound 112] | – | –
30 | < 100 nM | 89.6 nM | CNCCN(C)Cc1c[nH]nc1[C@H]1CC[C@H](OCCOc2ccc(OC)cc2)CC1 [Compound 186] | – | –
31 | < 100 nM | 23.7 nM | CNCCN(C)Cc1c[nH]nc1C1CCC2(CC1)NC(=O)N(C)C2=O (stereo not drawn) [Compound 170] | – | –
32 | – | – | CC[C@H]1CC[C@H](c2n[nH]cc2CN(C)CCNC)CC1 [Compound 148] | < 3000 nM | 16 nM
33 | – | – | CNCCN(C)Cc1c[nH]nc1[C@H]1CC[C@]2(CC1)CC(=O)N(CC(C)C)C2 [Compound 155] | 3010 to 12000 nM | 4080 nM
34 | < 100 nM | 55.4 nM | CNCCN(C)Cc1c[nH]nc1[C@H]1CC[C@@H](N(CC2CCOCC2)C(=O)CC(C)C)CC1 [Compound 107] | – | –
35 | – | – | CNCCN(C)Cc1c[nH]nc1C1CCC2(CC1)C(=O)N(C)C(=O)N2C (stereo not drawn) [Compound 171] | < 3000 nM | 192 nM
36 | – | – | CNCCN(C)Cc1c[nH]nc1C1CCC2(CC1)OCCCO2 [Compound 160] | < 3000 nM | 166 nM
